US7247617B2, “Sixteen-member macrolide antiinfective agents” (Kosan Biosciences Incorporated, priority 2004, dated 2007)

Legend:
S. pneumoniae = experiment: Biological activity against bacterial strains: S. pneumoniae; type: cell-based, Streptococcus pneumoniae; set-up: Biological Activity, S. pneumoniae ATCC6301 / Biological Activity, S. pneumoniae ATCC700671 / Biological Activity, S. pneumoniae ATCC700676* / Biological Activity, S. pneumoniae ATCC700677* / Biological Activity, S. pneumoniae ATCC700905* / Biological Activity, S. pneumoniae ATCC700906* / Biological Activity, S. pneumoniae ATCC49619: unit not given here; conditions: for Biological Activity, S. pneumoniae ATCC6301: strain ATCC6301; for Biological Activity, S. pneumoniae ATCC49619: strain ATCC49619; for Biological Activity, S. pneumoniae ATCC700671: strain ATCC700671; for Biological Activity, S. pneumoniae ATCC700676*: strain ATCC700676, macrolide resistant strain; for Biological Activity, S. pneumoniae ATCC700677*: strain ATCC700677, macrolide resistant strain; for Biological Activity, S. pneumoniae ATCC700905*: strain ATCC700905, macrolide resistant strain; for Biological Activity, S. pneumoniae ATCC700906*: strain ATCC700906, macrolide resistant strain
Haemophilus Influenzae = experiment: H. influenzae Activity; type: cell-based; conditions: for potency against H. influenzae (in words): compared to compound A, OMT and Ketek
S. aureus = experiment: Biological activity against bacterial strains: S. aureus; type: cell-based, Staphylococcus aureus; set-up: unit not given here
S. epidermidis = experiment: Biological activity against bacterial strains: S. epidermidis; type: cell-based, Staphylococcus epidermidis; conditions: strain ATCC12228

CCC1OC(=O)CC(O)C(C)C(OC2OC(C)C(O)C(N(C)C)C2O)C(CC=O)CC(C)C(=NOCCCOc2ccc3ncccc3c2)C=CC(C)=CC1CN(C)C (single isomer, unassigned) [Compound Y]
activity / potency against S. pneumoniae (in words) (S. pneumoniae): essentially remained unchanged | Biological Activity, S. pneumoniae ATCC6301 (S. pneumoniae): 0.025 | Biological Activity, S. pneumoniae ATCC49619 (S. pneumoniae): 0.025 | Biological Activity, S. pneumoniae ATCC700671 (S. pneumoniae): 0.098 | Biological Activity, S. pneumoniae ATCC700676* (S. pneumoniae): 0.025 | Biological Activity, S. pneumoniae ATCC700677* (S. pneumoniae): >12.5 | Biological Activity, S. pneumoniae ATCC700905* (S. pneumoniae): 0.025 | Biological Activity, S. pneumoniae ATCC700906* (S. pneumoniae): >12.5 | potency against H. influenzae (in words) (Haemophilus Influenzae): improved potency against H. influenzae, to a level similar to OMT and Ketek™ | H. influenzae Activity, strain ATCC9006 (Haemophilus Influenzae): 1.56 | H. influenzae Activity, strain ATCC49766 (Haemophilus Influenzae): 3.12 | H. influenzae Activity, strain EH001 (Haemophilus Influenzae): 3.12 | H. influenzae Activity, strain EH002 (Haemophilus Influenzae): 6.25 | H. influenzae Activity, strain EH003 (Haemophilus Influenzae): 3.12

CCC1OC(=O)CC(O)C(C)C(OC2OC(C)C(O)C(N(C)C)C2O)C(CC=O)CC(C)C(=NOCCCOc2ccc3ncccc3c2)C=CC(C)=CC1CN(C)C (single isomer, unassigned) [Compound Z]
activity / potency against S. pneumoniae (in words) (S. pneumoniae): essentially remained unchanged | Biological Activity, S. pneumoniae ATCC6301 (S. pneumoniae): 0.025 | Biological Activity, S. pneumoniae ATCC49619 (S. pneumoniae): 0.049 | Biological Activity, S. pneumoniae ATCC700671 (S. pneumoniae): 0.049 | Biological Activity, S. pneumoniae ATCC700676* (S. pneumoniae): 0.025 | Biological Activity, S. pneumoniae ATCC700677* (S. pneumoniae): >12.5 | Biological Activity, S. pneumoniae ATCC700905* (S. pneumoniae): 0.025 | Biological Activity, S. pneumoniae ATCC700906* (S. pneumoniae): >12.5 | potency against H. influenzae (in words) (Haemophilus Influenzae): improved potency against H. influenzae, to a level similar to OMT and Ketek™ | H. influenzae Activity, strain ATCC9006 (Haemophilus Influenzae): 1.56 | H. influenzae Activity, strain ATCC49766 (Haemophilus Influenzae): 3.12 | H. influenzae Activity, strain EH001 (Haemophilus Influenzae): 3.12 | H. influenzae Activity, strain EH002 (Haemophilus Influenzae): 3.12 | H. influenzae Activity, strain EH003 (Haemophilus Influenzae): 1.56

CC[C@H]1OC(=O)[C@H](C)[C@@H](O[C@H]2C[C@@](C)(OC)[C@@H](O)[C@H](C)O2)[C@H](C)[C@@H](O[C@@H]2O[C@H](C)C[C@H](N(C)C)[C@H]2O)[C@](C)(O)C[C@@H](C)C(=O)[C@H](C)[C@@H](O)[C@]1(C)O [Ery A, erythromycin A, reference compound]
Biological Activity, S. pneumoniae ATCC6301 (S. pneumoniae): 0.025 | Biological Activity, S. pneumoniae ATCC49619 (S. pneumoniae): 0.049 | Biological Activity, S. pneumoniae ATCC700671 (S. pneumoniae): 0.049 | Biological Activity, S. pneumoniae ATCC700676* (S. pneumoniae): 6.25 | Biological Activity, S. pneumoniae ATCC700677* (S. pneumoniae): 6.25 | Biological Activity, S. pneumoniae ATCC700905* (S. pneumoniae): 3.12 | Biological Activity, S. aureus ATCC6538p (S. aureus; strain ATCC6538p): 0.098 | Biological Activity, S. aureus ATCC29213 (S. aureus; strain ATCC29213): 0.20 | Biological Activity, S. epidermidis ATCC12228 (S. epidermidis): 0.20 | H. influenzae Activity, strain ATCC9006 (Haemophilus Influenzae): 1.56 | H. influenzae Activity, strain ATCC49766 (Haemophilus Influenzae): 6.25 | H. influenzae Activity, strain EH001 (Haemophilus Influenzae): 3.12 | H. influenzae Activity, strain EH002 (Haemophilus Influenzae): 6.25 | H. influenzae Activity, strain EH003 (Haemophilus Influenzae): 3.12

CC[C@H]1OC(=O)[C@H](C)C(=O)[C@H](C)[C@@H](O[C@@H]2O[C@H](C)C[C@H](N(C)C)[C@H]2O)[C@](C)(OC)C[C@@H](C)C(=O)[C@H](C)[C@H]2N(CCCCn3cnc(-c4cccnc4)c3)C(=O)O[C@]12C [Ketek, telithromycin, reference compound]
H. influenzae Activity, strain ATCC9006 (Haemophilus Influenzae): 1.56 | H. influenzae Activity, strain ATCC49766 (Haemophilus Influenzae): 3.12 | H. influenzae Activity, strain EH001 (Haemophilus Influenzae): 1.56 | H. influenzae Activity, strain EH002 (Haemophilus Influenzae): 6.25 | H. influenzae Activity, strain EH003 (Haemophilus Influenzae): 1.56
